The values that follow come from paper PMC9496819 (Cancers, 2022).

The test system of one series is OVCAR8 PTX R P cells. Briefly: Presto Blue cell viability assay, single drugs and Paclitaxel combinations (Chou–Talalay, Bliss, HSA analysis). The following applies: for Cellular viability (%) Media: alone or combined. As to the method:
(§1) To determine the effect of single and combination drug treatments on the cellular viability of cell lines, a resazurin-based assay—Presto Blue (PB)—was performed. Briefly, 5 × 10^3 cells/well were seeded into a 96-well plate in complete media, incubated at 37 °C and 5% CO2 and allowed to adhere overnight prior to drug exposure. After 24 h, cells were exposed to increasing concentrations of drugs and incubated under the same conditions. After 48 h, culture medium was removed, and 50 μL/well of PrestoBlue^TM Cell Viability Reagent 1× (ThermoFisher Scientific) was added. Cells were incubated for 45 min, protected from light, at 37 °C and 5% CO2.
(§2) The IC50 values were first obtained for each drug alone for OVCAR8, OVCAR8 PTX R P and HOSE6.3 cell lines. […] A mutually exclusive model, assuming that drugs act through […] mechanisms, was used for this analysis. […] The CI is a quantitative representation of pharmacological interactions (i.e., CI < 1, synergism; =1, additive interactions; and >1, antagonism), plotted on y-axis as a function of effect level (Fa) on the x-axis to assess drug synergism between drug combinations. Additionally, we estimated the expected drug combination responses based on the Bliss Independence and Highest Single Agent (HSA) reference models using SynergyFinder 2.0 Software. Positive and negative synergy score values denote synergy and antagonism, respectively. The cNMF algorithm implemented in SynergyFinder 2.0 was used for estimation of outlier measurements.

The next series concerns OVCAR8 cells. Described as above. The settings on record: for Cellular viability (%) Media: OVCAR8, 48 h, alone or combined. The method, then:
as §1, §2

Another series has as its system HOSE6.3 cells. Briefly: Presto Blue cell viability assay in non-tumoral cells, single drugs and Paclitaxel combinations (Chou–Talalay, Bliss, HSA analysis). The following applies: for IC50 (in words) / IC50: 48 h; for IC50 (in words): considered concentration ranges; for Cellular viability (%) Media: HOSE6.3, 48 h, alone or combined. As to the method:
as §1, §2

Assay in series [1]: as above
The settings on record: human, HOSE6.3 cells (non-tumoral). The method, then:
as §1, §2

Where [2] appears, read: OVCAR8 PTX R P, 48 h, 0.25 x IC50 of each drug.
Setting [3] is: OVCAR8 PTX R P, 48 h, 0.5 x IC50 of each drug.
[4] abbreviates: OVCAR8 PTX R P, 48 h, 2 x IC50 of each drug.
The mark [5] stands for this setting: OVCAR8 PTX R P, 48 h, IC50 of each drug.

The term IC50 denotes the concentration needed to halve the response being measured. As to `NCCCC(O)(P(=O)(O)O)P(=O)(O)O` [Alendronate], the IC50 is 196 ± 20.2 µM with OVCAR8 PTX R P cells (Homo sapiens, OVCAR-8, 48 h) and 219 ± 13.6 µM with OVCAR8 cells (Homo sapiens, OVCAR-8, 48 h). Besides, the “IC50 (in words)” value with HOSE6.3 cells (HOSE6.3, single agent) is recorded as “not obtaining IC50 values in the considered concentration ranges”.

In the case of `CCC(C)n1ncn(-c2ccc(N3CCN(c4ccc(OCC5COC(Cn6cncn6)(c6ccc(Cl)cc6Cl)O5)cc4)CC3)cc2)c1=O` (stereo not drawn) [Itraconazole], the IC50 came to 35.6 ± 0.48 µM in the series on OVCAR8 PTX R P cells (Homo sapiens, OVCAR-8, 48 h); 39.1 ± 3.38 µM in the series with OVCAR8 cells (Homo sapiens, OVCAR-8, 48 h); 38.6 ± 5.11 µM with HOSE6.3 cells (Homo sapiens).

As for `CN(C)C(=N)N=C(N)N` [Metformin], the IC50 in the series on OVCAR8 PTX R P cells (Homo sapiens, OVCAR-8, 48 h) was found to be 1460 ± 193 µM; in the series on OVCAR8 cells (Homo sapiens, OVCAR-8, 48 h), 1500 ± 169 µM. Also, the “IC50 (in words)” value with HOSE6.3 cells (HOSE6.3, single agent) is “not obtaining IC50 values in the considered concentration ranges”.

The term viability denotes the share of living cells, or the viability signal relative to a control. `O=C(O)C[C@H](O)C[C@H](O)/C=C/c1c(C2CC2)nc2ccccc2c1-c1ccc(F)cc1` [Pitavastatin]: the IC50 in the series on OVCAR8 PTX R P cells (Homo sapiens, OVCAR-8, 48 h) worked out at 0.85 ± 0.142 µM; with OVCAR8 cells (Homo sapiens, OVCAR-8, 48 h) it was 0.801 ± 0.061 µM. The “Cellular viability (%) Media” value in the series on OVCAR8 PTX R P cells (setting [2]) came to 59.998%; in the series on OVCAR8 PTX R P cells (setting [3]), 50.426%; in the series on OVCAR8 PTX R P cells (setting [4]) it was 28.330%; in the series with OVCAR8 PTX R P cells (setting [5]), 45.406%; in the series with OVCAR8 cells (0.25 x IC50 of each drug), 61.378%; in the series on OVCAR8 cells (0.5 x IC50 of each drug), 51.912%. For the same compound, the “Cellular viability (%) Media” value with OVCAR8 cells (2 x IC50 of each drug) is given as 27.970%; in the series on OVCAR8 cells (IC50 of each drug) it was 45.624%. Also, the “IC50 (in words)” value in the series with HOSE6.3 cells (HOSE6.3, single agent) is listed as “not obtaining IC50 values in the considered concentration ranges”. For the same compound, the viability at 48 h, 0.25 x IC50 in series [1] was determined as 81.8%. The viability at 48 h, 0.5 x IC50 in series [1] came to 76.5%. In addition, in series [1], the viability at 48 h, 1 x IC50 was determined as 68.5%. Also, in series [1], the viability at 48 h, 2 x IC50 came out at 65.9%. In addition, in series [1], the viability at 48 h, 4 x IC50 is 61.4%.

On to Ivermectin, for which the “Cellular viability (%) Media” value with OVCAR8 PTX R P cells (setting [2]) turned out to be 81.152%; in the series on OVCAR8 PTX R P cells (setting [3]), 65.026%; in the series with OVCAR8 PTX R P cells (setting [4]), 0.966%; with OVCAR8 PTX R P cells (OVCAR8 PTX R P, 48 h, 4 x IC50 of each drug) it was 1.370%; in the series with OVCAR8 PTX R P cells (setting [5]) it was 47.496%; in the series with OVCAR8 cells (0.25 x IC50 of each drug) it was 77.004%. Also, the “Cellular viability (%) Media” value with OVCAR8 cells (0.5 x IC50 of each drug) was determined as 69.934%; in the series on OVCAR8 cells (2 x IC50 of each drug), 0.759%; in the series with OVCAR8 cells (4 x IC50 of each drug) it was 0.867%; with OVCAR8 cells (IC50 of each drug), 46.412%; in the series with HOSE6.3 cells (0.5 x IC50 of each drug), 99.694%; with HOSE6.3 cells (2 x IC50 of each drug), 0.539%. The results for the “Cellular viability (%) Media” value in the series with HOSE6.3 cells (4 x IC50 of each drug) and in the series on HOSE6.3 cells (IC50 of each drug) were 0.000% and 53.462%, respectively. Further, the IC50 with OVCAR8 PTX R P cells (OVCAR8 PTX R P, single agent, 48 h) worked out at 15.5 ± 1.86 µM; with OVCAR8 cells (OVCAR8, single agent, 48 h), 16 ± 2.91 µM; with HOSE6.3 cells (HOSE6.3, single agent), 12.6 ± 2.19 µM.
